Data: US7829280B2, “Process for reducing interferences in luciferase enzyme assays” (LuminUltra Technologies Ltd., priority 2007, dated 2010)

Tests used:
[1] = target: T1, firefly luciferase (Photinus pyralis, UniProt P08659); assay: Firefly luciferase assay of ATP standard solution containing ADBAC, with and without chelating resin pre-treatment; assay type: biochemical; settings: phosphate buffer ATP solution containing 1000 mg/L ADBAC
Method: The light produced in this reaction was measured in a luminometer (Kikkoman C-100 Lumitester). Several dilutions of this ATP solution were also prepared in phosphate buffer and tested. In addition, a 3 mL portion of this solution was mixed with 1 mL of a chelating resin (IRC748, Rohm and Haas Company) and similarly diluted in phosphate buffer, then assayed for ATP.

[2] = target: T1, firefly luciferase; assay: Firefly luciferase assay for ATP in ADBAC extract of wastewater effluent, with and without chelating resin; assay type: biochemical
Method: The ATP released by this process was measured in a Kikkoman luminometer by mixing 100 microliters of the mixture and combining it with 100 microliters of a luciferase assay mixture. Several dilutions of this ATP extract were also prepared in phosphate buffer and tested. In addition, a 3 mL portion of the ATP extract was mixed with 1 mL of a chelating resin (IRC748, Rohm and Haas Company) and similarly diluted in phosphate buffer, then assayed for ATP.
Further dilutions were made in a phosphate buffer. The chelating resin was IRC-748. The resin treatment consisted of mixing 1 mL of resin with 3 mL of extract, then allowing the resin beads to settle before ATP analysis.

[3] = target: T2, luciferase (Photinus pyralis, UniProt P08659); assay: Luciferase assay for ATP in ADBAC extract of wastewater effluent (different date), 2 mL resin or two 1 mL portions; assay type: biochemical, firefly; settings: no extract pre-treatment
Method: Further dilutions were made in a phosphate buffer. The chelating resin was IRC-748. The resin treatment consisted of mixing 2 mL of resin with 3 mL of extract, then allowing the resin beads to settle before ATP analysis. In a variation of this analysis, 3 mL of sample were treated with 1 mL of resin and the supernatant of this treatment was treated to a second 1 mL portion of resin prior to ATP analysis.

[4] = target: T2, luciferase; assay: Luciferase activity in ATP standard spiked with ADBAC after treatment with various resins; assay type: biochemical, firefly; settings: 10 ng/mL ATP
Method: The experiment was conducted in the same format as described for the first experiment by testing an ATP standard solution spiked with ADBAC. The dilution required to remove inhibition following treatment with an ion-exchange resin was the same as the test condition in which no resin treatment was applied. In contrast, a ¼ fold dilution removed almost all of the inhibition in the solution that had been pre-treated with the chelating resin. Again, the luciferase activity in an undiluted solution treated with the chelating resin provided a response many times greater than untreated solution or solution treated with ion exchange resins.
It should be noted that Table 4 is constructed from results of 2 different experiments. In order to facilitate comparison, the results are expressed as enzyme activity instead of instrument reading. Luciferase activity was calculated by dividing the RLU of each test condition by the RLU of an uninhibited reaction and expressing the results as a percentage.

[5] = target: T1, firefly luciferase; assay: Combined treatment with soluble (β-cyclodextrin) and insoluble (IRC-748) neutralizers of ADBAC inhibition of firefly luciferase; assay type: biochemical; settings: β-cyclodextrin 3,750 mg/L, resin 1 part per 3 parts
Method: Four dilution series were prepared from this stock solution. One series was diluted only in a phosphate buffer. Another identical series was prepared in the phosphate buffer but was pre-treated with IRC-748 chelating resin (3 parts solution treated with one part resin) prior to assaying for ATP. […] The fourth series was prepared in the same way as the third series, except that each member of the series was pre-treated with IRC-748 chelating resin (3 parts solution treated with one part resin) prior to assaying for ATP. All solutions were assayed for ATP by mixing 100 microliters of solution with 100 microliters of luciferase reagent and measuring the light produced in a Kikkoman luminometer.
The experiment described in Example 5 compares the ability of a soluble agent (β-cyclodextrin) and an insoluble agent (chelating resin, IRC-748) and their combination to neutralize the inhibition of the bioluminescent reaction catalyzed by firefly luciferase.
A concentrate of cyclodextrin was added to the ATP solutions in some of the tests to maintain concentration of 3,750 mg/L through the dilution series.

T1 sequence (P08659 whole entry): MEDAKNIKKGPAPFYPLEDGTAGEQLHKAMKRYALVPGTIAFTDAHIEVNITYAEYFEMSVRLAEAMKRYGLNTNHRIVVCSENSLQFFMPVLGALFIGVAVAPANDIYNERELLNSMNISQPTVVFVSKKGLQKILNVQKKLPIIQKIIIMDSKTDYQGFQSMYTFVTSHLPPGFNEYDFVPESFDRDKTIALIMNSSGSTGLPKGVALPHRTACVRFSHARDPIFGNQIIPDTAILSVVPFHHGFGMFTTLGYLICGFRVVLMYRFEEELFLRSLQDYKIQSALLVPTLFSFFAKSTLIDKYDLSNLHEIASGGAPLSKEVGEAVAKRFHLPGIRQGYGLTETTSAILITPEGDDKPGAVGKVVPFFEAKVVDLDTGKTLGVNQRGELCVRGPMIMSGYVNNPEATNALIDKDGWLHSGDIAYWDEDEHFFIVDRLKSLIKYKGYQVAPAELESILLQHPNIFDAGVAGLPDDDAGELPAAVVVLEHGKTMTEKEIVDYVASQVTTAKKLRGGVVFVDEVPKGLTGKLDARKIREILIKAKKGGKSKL
T2 sequence (P08659 whole entry): as above

Molecule	dilution factor needed to overcome luciferase inhibition [1]	RLU ([2]; dilution of ADBAC (1000 mg/L) in ATP extract 1/16, resin 1 mL per 3 mL extract)	RLU ([2]; dilution of ADBAC (1000 mg/L) in ATP extract 1/32, resin 1 mL per 3 mL extract)	RLU ([2]; dilution of ADBAC (1000 mg/L) in ATP extract ¼, resin 1 mL per 3 mL extract)	RLU ([2]; dilution of ADBAC (1000 mg/L) in ATP extract ½, resin 1 mL per 3 mL extract)	RLU ([3]; dilution of ADBAC in ATP extract 1/16) [RLU]	RLU ([3]; dilution of ADBAC in ATP extract 1/32) [RLU]	RLU ([3]; dilution of ADBAC in ATP extract ¼)	RLU ([3]; dilution of ADBAC in ATP extract ½) [RLU]	RLU ([3]; dilution of ADBAC in ATP extract ⅛) [RLU]	Luciferase Activity (% of activity in the absence of ADBAC) ([4]; dilution 1/16, 1000 mg/L ADBAC stock in phosphate buffer) [%]	Luciferase Activity (% of activity in the absence of ADBAC) ([4]; dilution None, 1000 mg/L ADBAC in phosphate buffer) [%]	Luciferase Activity (% of activity in the absence of ADBAC) ([4]; dilution ¼, 1000 mg/L ADBAC stock in phosphate buffer) [%]	Luciferase Activity (% of activity in the absence of ADBAC) ([4]; dilution ½, 1000 mg/L ADBAC stock in phosphate buffer) [%]	Luciferase Activity (% of activity in the absence of ADBAC) ([4]; dilution ⅛, 1000 mg/L ADBAC stock in phosphate buffer) [%]	RLU ([5]; dilution 1/16 of 7200 mg/L ADBAC, 1 ng ATP per mL stock) [RLU]	RLU ([5]; dilution ¼ of 7200 mg/L ADBAC, 1 ng ATP per mL stock) [RLU]	RLU ([5]; dilution ½ of 7200 mg/L ADBAC, 1 ng ATP per mL stock (3600 mg/L ADBAC, 0.5 ng/mL ATP)) [RLU]	RLU ([5]; dilution ⅛ of 7200 mg/L ADBAC, 1 ng ATP per mL stock) [RLU]
alkyl dimethybenzyl ammonium chloride [ADBAC]	8	4,628 RLU	2,401 RLU	4,658 RLU	1,489 RLU	3100	1551	7,310 RLU	209	6064	100	0.01	33	6.7	100				
OC[C@H]1O[C@@H]2O[C@H]3[C@H](O)[C@@H](O)[C@@H](O[C@H]4[C@H](O)[C@@H](O)[C@@H](O[C@H]5[C@H](O)[C@@H](O)[C@@H](O[C@H]6[C@H](O)[C@@H](O)[C@@H](O[C@H]7[C@H](O)[C@@H](O)[C@@H](O[C@H]8[C@H](O)[C@@H](O)[C@@H](O[C@H]1[C@H](O)[C@H]2O)O[C@@H]8CO)O[C@@H]7CO)O[C@@H]6CO)O[C@@H]5CO)O[C@@H]4CO)O[C@@H]3CO [β-cyclodextrin]																606	96	3	1227
